Data taken from US20230034660A1, “PEPTIDES THAT ENHANCE NMDA RECEPTOR FUNCTION AND USE THEREOF” (University of Pittsburgh - Of the Commonwealth System of …, priority 2019, published 2023).

Test system: NMDAR
Assay: NMDAR-mediated currents evoked by uncaging MNI-caged glutamate in cortical cultures, ZX1 potentiation
Format: cell-based, rat
Settings: cortical cultures treated with peptide 3 μM overnight; held at −70 mV, Mg2+ free
Method: FIGS. 5A-5C: N2AZ reduces zinc inhibition of NMDAR currents in cortical cultures. (FIG. 5A) Representative image of a neuron in cortical culture filled with Alexa 548 during whole cell recording. Asterisk represents location of laser photolysis of MNI-caged glutamate (40 μM, 1 millisecond pulse) used to evoke EPSCs. (FIG. 5B) Sample traces of NMDAR EPSCs, averaged over 5 sweeps, evoked by photolysis of MNI-caged glutamate in cortical cultures held at −70 mV in Mg^2 + free solution. […] Bar graphs represent the average potentiation of responses 5 minutes after ZX1 application. Errors bars indicate mean±SEM. […]
Whole-cell recordings from cultured cortical neurons were obtained with glass micropipettes (3-6 MΩ) containing 140 mM CsF, 10 mM CsEGTA, 1 mM CaCl2, 10 mM HEPES, pH=7,2, 295 mOsm. […] Using ephus (Suter et al. 2010) and a Multiclamp 700B amplifier (Molecular Devices), NMDAR excitatory postsynaptic currents (EPSCs) were recorded in voltage clamp (held at −70 mV) in the presence of TTX (300 nM to prevent synaptic activity), DNQX (20 μM, AMPA and kainate receptor antagonist), and 4-Methoxy-7-nitroindolinyl (MNI)-caged glutamate (40 μM). […] The ZX1-mediated potentiation for each cell was calculated as the average percent increase in responses following application of the metal chelator across these 4 uncaging locations. […]

Sequence	ZX1 potentiation of NMDAR-mediated currents above baseline
SNLSDSYDR [scN2AZ, reference compound]	37.40±11.63%
NDSYLRSSL [Peptide N2AZ]	1.34±3.48%
